Reference: ChEMBL document CHEMBL1136475, “Synthesis and analgesic activity of hydrochlorides and quaternary ammoniums of epibatidine incorporated with amino acid ester” (Bioorg Med Chem Lett, 2003)

Experiments:
[1] = target: Neuronal acetylcholine receptor; assay: Binding affinity towards nicotinic acetylcholine receptor (nAChR); format: protein-complex assay
Mus musculus [2] = assay: In vivo analgesic activity using acetic acid writhing test in mice at a dose of 20 mg/kg by sc administration; format: functional; conditions: route subcutaneous
Mus musculus [3] = assay: In vivo analgesic activity using acetic acid writhing test in mice at a dose of 10 mg/kg by sc administration; format: functional; conditions: route subcutaneous
[4] = Toxicity in rats was determined by sc administration at a dose of 10 mg/kg; format: organism-based; design: dose 10 mg/kg, route subcutaneous; conditions: rat, in vivo, read-out: Rate of death
Mus musculus [5] = assay: In vivo analgesic activity using acetic acid writhing test in mice at a dose of 1 mg/kg by sc administration; format: functional; conditions: route subcutaneous
[6] = Toxicity in rats was determined by sc administration at a dose of 1 mg/kg; format: organism-based; design: dose 1 mg/kg, route subcutaneous; conditions: rat, in vivo, read-out: Rate of death
[7] = Toxicity in rats was determined by sc administration at a dose of 5 mg/kg; format: organism-based; design: dose 5 mg/kg, route subcutaneous; conditions: rat, in vivo, read-out: Rate of death
Mus musculus [8] = assay: In vivo analgesic activity using acetic acid writhing test in mice at a dose of 5 mg/kg by sc administration; format: functional; conditions: route subcutaneous
[9] = Toxicity in rats was determined by sc administration at a dose of 20 mg/kg; format: organism-based; design: dose 20 mg/kg, route subcutaneous; conditions: rat, in vivo, read-out: Rate of death

| SMILES | Inhibitory rate (Mus musculus [2]) [%] | mortality [9] [%] | also measured |
| --- | --- | --- | --- |
| c1cncc(CN2C3CCC2CC3)c1 |  |  | Ki [1]: 98 nM |
| CCOC(=O)CCC(NC(=O)C1C(c2ccc(Cl)nc2)C2CCC1[N+]2(C)Cc1ccccc1)C(=O)OCC.[I-] (configuration not stated) | 1 |  | Inhibitory rate (Mus musculus [3]): 99.3%; mortality [4]: 80% |
| CCOC(=O)C1CSCN1C(=O)C1C(c2ccc(Cl)nc2)C2CCC1[N+]2(C)Cc1ccccc1.[I-] (configuration not stated) |  |  | Inhibitory rate (Mus musculus [5]): 9.1%; mortality [6]: 0%; mortality [7]: 0%; Inhibitory rate (Mus musculus [8]): 49.8% |
| CCOC(=O)CNC(=O)C1C(c2ccc(Cl)nc2)C2CCC1[N+]2(C)Cc1ccccc1.[I-] (configuration not stated) | 66.6 | 0 |  |
| C[N+]1(Cc2ccccc2)CCN(C(=O)CCCCCCC(=O)N2CC[N+](C)(Cc3ccccc3)CC2)CC1.[Br-].[Br-] | 80.3 |  |  |
| CCOC(=O)CCC(NC(=O)C1C(c2ccc(Cl)nc2)C2CCC1N2Cc1ccccc1)C(=O)OCC.Cl (configuration not stated) | 27.1 | 0 |  |
| CCOC(=O)CNC(=O)C1C(c2ccc(Cl)nc2)C2CCC1N2Cc1ccccc1.Cl (configuration not stated) | 26.1 | 0 |  |
| CCOC(=O)C1CSCN1C(=O)C1C(c2ccc(Cl)nc2)C2CCC1N2Cc1ccccc1.Cl (configuration not stated) | 12.3 | 0 |  |
